# Data taken from ChEMBL document CHEMBL3120136 (J Med Chem, 2014).
# Legend:
# [1] = Inhibition of Hepatitis C virus full-length NS3/4A protease assessed as quenched-fluorogenic RET-S1 substrate cleavage incubated for 10 mins prior to substrate addition by FRET analysis; design: species or system Hepacivirus hominis
# Hepatitis C virus [2] = experiment: Antiviral activity against Hepatitis C virus infected in human HuH7 cells assessed as inhibition of HCV subgenomic replicon replication after 72 hrs by ELISA; assay type: functional, organism-based, Hepacivirus hominis, Huh-7; conditions: Hepatitis C virus, Huh-7, 72 h; read-out: EC50
# [3] = Ratio of EC50 for Hepatitis C virus infected in human HuH7 cells to IC50 for Hepatitis C virus full-length NS3/4A protease; design: species or system Huh-7
# [4] = Plasma clearance in rat assessed as extraction ratio; assay type: ADME, organism-based; conditions: read-out: ERH
# [5] = Aqueous solubility of the compound at pH 6.5 by modified shake-flask method; assay type: physicochemical
# [6] = Aqueous solubility of the compound at pH 7.4 by modified shake-flask method; assay type: physicochemical
# Hepatitis C virus [7] = experiment: Ratio of EC50 for Hepatitis C virus harboring NS3/4A protease A156T mutant gene to EC50 for Hepatitis C virus harboring wild type NS3/4A protease infected in human HuH7 cells; assay type: functional, Hepacivirus hominis, Huh-7
# [8] = Inhibition of Hepatitis C virus genotype 5 NS3/4A protease using Ac-DE-Dap(QXL520)-EE-Abu-psi-[COO]-AS-Cys(5-FAMsp)-NH2 as substrate by FRET analysis
# [9] = Inhibition of Hepatitis C virus genotype 1a NS3/4A protease using Ac-DE-Dap(QXL520)-EE-Abu-psi-[COO]-AS-Cys(5-FAMsp)-NH2 as substrate by FRET analysis; design: species or system Hepatitis C virus subtype 1a
# Hepatitis C virus [10] = experiment: Antiviral activity against Hepatitis C virus genotype 3 infected in human HuH7 cells assessed as decrease in replicon RNA level after 2 days by TaqMan Gold RT-PCR analysis; assay type: functional, organism-based, Hepacivirus hominis; conditions: genotype 3, Huh-7, 48 h
# Cytochrome P450 1A2 = biological target: T1, Cytochrome P450 1A2 (Homo sapiens, UniProt P05177); experiment: Inhibition of CYP1A2 (unknown origin); assay type: ADME
# T1 sequence (P05177 whole entry): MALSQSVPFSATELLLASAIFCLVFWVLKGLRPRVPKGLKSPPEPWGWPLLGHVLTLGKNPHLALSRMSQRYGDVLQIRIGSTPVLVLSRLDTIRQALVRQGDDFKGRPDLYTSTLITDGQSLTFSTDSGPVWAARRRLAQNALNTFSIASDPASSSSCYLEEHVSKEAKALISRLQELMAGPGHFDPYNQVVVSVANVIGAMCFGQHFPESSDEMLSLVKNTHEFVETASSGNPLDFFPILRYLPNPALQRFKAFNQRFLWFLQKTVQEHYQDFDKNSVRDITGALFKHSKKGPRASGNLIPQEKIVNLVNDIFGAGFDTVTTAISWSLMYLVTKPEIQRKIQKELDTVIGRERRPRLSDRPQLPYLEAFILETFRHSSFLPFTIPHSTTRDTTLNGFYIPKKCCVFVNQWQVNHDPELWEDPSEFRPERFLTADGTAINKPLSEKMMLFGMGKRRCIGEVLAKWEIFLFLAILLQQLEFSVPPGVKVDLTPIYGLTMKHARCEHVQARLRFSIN
# [11] = AUC (0 to 24 hrs) in Sprague-Dawley rat plasma at 30 mg/kg, po by HPLC-MS/MS analysis; assay type: ADME, organism-based; design: time < 24 hr, dose 30 mg/kg, route oral
# Cytochrome P450 2C9 = Cytochrome P450 2C9 (Homo sapiens, UniProt P11712); experiment: Inhibition of CYP2C9 (unknown origin); assay type: ADME
# Cytochrome P450 2C9, sequence (P11712 whole entry): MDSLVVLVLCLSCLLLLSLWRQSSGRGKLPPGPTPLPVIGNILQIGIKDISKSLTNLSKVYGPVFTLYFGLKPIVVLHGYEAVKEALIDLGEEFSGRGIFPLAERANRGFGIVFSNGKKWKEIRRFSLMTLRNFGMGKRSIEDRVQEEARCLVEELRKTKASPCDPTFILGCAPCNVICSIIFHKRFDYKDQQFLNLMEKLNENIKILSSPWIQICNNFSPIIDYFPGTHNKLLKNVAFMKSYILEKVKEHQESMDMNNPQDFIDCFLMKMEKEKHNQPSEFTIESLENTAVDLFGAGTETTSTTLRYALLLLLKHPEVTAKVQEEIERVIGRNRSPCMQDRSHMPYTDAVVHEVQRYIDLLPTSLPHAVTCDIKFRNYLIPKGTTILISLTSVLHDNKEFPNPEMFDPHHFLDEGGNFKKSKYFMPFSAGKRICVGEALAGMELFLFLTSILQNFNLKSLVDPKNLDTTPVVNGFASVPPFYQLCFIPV
# [12] = Metabolic stability in cynomolgus monkey hepatocytes assessed as extraction ratio at 1 uM; assay type: ADME, cell-based, Macaca fascicularis, Hepatocyte; conditions: read-out: ERH
# [13] = Ratio of drug level in liver to plasma in dog; assay type: ADME, tissue-based, Canis lupus familiaris; conditions: liver and plasma
# [14] = Inhibition of Hepatitis C virus genotype 1a wild type NS3/4A protease expressed in Escherichia coli BL21 (DE3) cells assessed as substrate cleavage using Ac-DE-Dap(QXL520)-EE-Abu-psi-[COO]AS-C(5-FAMsp)-NH2 as substrate by plate reader analysis; design: species or system Hepatitis C virus subtype 1a
# [15] = Inhibition of Hepatitis C virus genotype 2b NS3/4A protease using Ac-DE-Dap(QXL520)-EE-Abu-psi-[COO]-AS-Cys(5-FAMsp)-NH2 as substrate by FRET analysis; design: species or system Hepatitis C virus subtype 2b
# [16] = Inhibition of Hepatitis C virus genotype 3a NS3/4A protease using Ac-DE-Dap(QXL520)-EE-Abu-psi-[COO]-AS-Cys(5-FAMsp)-NH2 as substrate by FRET analysis; design: species or system Hepatitis C virus subtype 3a
# [17] = Metabolic stability in rat hepatocytes assessed as extraction ratio at 1 uM; assay type: ADME, cell-based, Hepatocyte; conditions: read-out: ERH
# [18] = Inhibition of Hepatitis C virus genotype 1b NS3/4A protease using Ac-DE-Dap(QXL520)-EE-Abu-psi-[COO]-AS-Cys(5-FAMsp)-NH2 as substrate by FRET analysis; design: species or system Hepatitis C virus subtype 1b
# [19] = Permeability from apical to basolateral side of human Caco2 cells; assay type: ADME, cell-based; conditions: Caco-2, read-out: permeability
# NS3 protease = NS3 protease (Hepacivirus C, UniProt C1KIQ2, A156T); experiment: Inhibition of Hepatitis C virus genotype 1a NS3/4A protease A156T mutant expressed in Escherichia coli BL21 (DE3) cells assessed as substrate cleavage using Ac-DE-Dap(QXL520)-EE-Abu-psi-[COO]AS-C(5-FAMsp)-NH2 as substrate by plate reader analysis; design: species or system Hepatitis C virus subtype 1a
# NS3 protease, sequence (C1KIQ2 entry or part of it A156T): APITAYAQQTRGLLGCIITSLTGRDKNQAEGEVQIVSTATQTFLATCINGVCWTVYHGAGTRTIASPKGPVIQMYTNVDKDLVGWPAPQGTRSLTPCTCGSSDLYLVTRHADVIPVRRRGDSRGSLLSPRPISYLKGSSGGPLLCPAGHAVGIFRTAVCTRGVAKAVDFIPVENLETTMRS
# Rattus norvegicus = experiment: Volume of distribution at steady state in Sprague-Dawley rat at 1 mg/kg, iv by HPLC-MS/MS analysis; conditions: in vivo
# [20] = AUC (0 to 24 hrs) in Sprague-Dawley rat liver at 30 mg/kg, po by HPLC-MS/MS analysis; assay type: ADME, organism-based; design: time < 24 hr, dose 30 mg/kg, route oral
# [21] = Inhibition of Hepatitis C virus genotype 6 NS3/4A protease using Ac-DE-Dap(QXL520)-EE-Abu-psi-[COO]-AS-Cys(5-FAMsp)-NH2 as substrate by FRET analysis
# Hepatitis C virus [22] = experiment: Antiviral activity against Hepatitis C virus […] isolate Con1 harboring wild type NS3/4A protease infected in human HuH7 cells assessed as inhibition of HCV replicon replication by luciferase assay; assay type: functional, organism-based, Hepacivirus hominis; conditions: isolate Con1, Huh-7
# [23] = biological target: Voltage-gated inwardly rectifying potassium channel KCNH2 (Homo sapiens, UniProt Q12809); experiment: Inhibition of human ERG at 10 uM
# Voltage-gated inwardly rectifying potassium channel KCNH2, sequence (Q12809 whole entry): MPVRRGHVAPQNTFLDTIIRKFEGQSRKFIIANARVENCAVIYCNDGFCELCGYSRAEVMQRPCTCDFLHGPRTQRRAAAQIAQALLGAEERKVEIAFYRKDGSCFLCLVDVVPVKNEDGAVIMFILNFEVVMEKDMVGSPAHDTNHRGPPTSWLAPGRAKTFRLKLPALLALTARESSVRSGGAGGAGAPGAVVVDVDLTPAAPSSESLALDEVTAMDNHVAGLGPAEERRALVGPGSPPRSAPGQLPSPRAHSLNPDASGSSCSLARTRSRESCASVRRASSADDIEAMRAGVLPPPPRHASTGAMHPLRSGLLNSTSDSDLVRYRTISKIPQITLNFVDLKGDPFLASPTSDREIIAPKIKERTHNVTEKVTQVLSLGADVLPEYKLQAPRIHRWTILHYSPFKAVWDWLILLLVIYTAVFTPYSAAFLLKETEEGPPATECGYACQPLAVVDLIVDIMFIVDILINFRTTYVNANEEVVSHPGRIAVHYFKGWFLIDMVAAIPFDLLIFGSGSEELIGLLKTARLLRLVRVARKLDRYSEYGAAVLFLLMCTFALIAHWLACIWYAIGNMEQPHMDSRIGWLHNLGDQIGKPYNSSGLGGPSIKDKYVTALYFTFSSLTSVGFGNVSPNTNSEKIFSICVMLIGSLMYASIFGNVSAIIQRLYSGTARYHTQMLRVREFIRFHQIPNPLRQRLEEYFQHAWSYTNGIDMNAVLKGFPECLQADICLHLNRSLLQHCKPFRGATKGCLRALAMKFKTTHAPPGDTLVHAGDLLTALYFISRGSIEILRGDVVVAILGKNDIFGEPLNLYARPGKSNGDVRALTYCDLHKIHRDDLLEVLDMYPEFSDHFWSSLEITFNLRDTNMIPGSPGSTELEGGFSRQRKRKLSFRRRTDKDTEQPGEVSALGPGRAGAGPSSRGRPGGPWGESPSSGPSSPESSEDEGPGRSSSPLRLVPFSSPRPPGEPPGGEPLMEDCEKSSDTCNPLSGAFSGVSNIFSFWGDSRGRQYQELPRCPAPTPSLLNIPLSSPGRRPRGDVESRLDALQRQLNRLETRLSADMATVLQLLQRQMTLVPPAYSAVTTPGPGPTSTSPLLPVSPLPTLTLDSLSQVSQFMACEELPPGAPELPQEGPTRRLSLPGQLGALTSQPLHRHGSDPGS
# Hepatitis C virus [24] = experiment: Antiviral activity against Hepatitis C virus genotype 1b infected in human HuH7 cells assessed as decrease in replicon RNA level after 2 days by TaqMan Gold RT-PCR analysis; assay type: functional, organism-based, Hepacivirus hominis; conditions: Huh-7, 48 h
# [25] = Oral bioavailability in rat liver; assay type: ADME, organism-based
# Cytochrome P450 2D6 = Cytochrome P450 2D6 (Homo sapiens, UniProt P10635); experiment: Inhibition of CYP2D6 (unknown origin); assay type: ADME
# Cytochrome P450 2D6, sequence (P10635 whole entry): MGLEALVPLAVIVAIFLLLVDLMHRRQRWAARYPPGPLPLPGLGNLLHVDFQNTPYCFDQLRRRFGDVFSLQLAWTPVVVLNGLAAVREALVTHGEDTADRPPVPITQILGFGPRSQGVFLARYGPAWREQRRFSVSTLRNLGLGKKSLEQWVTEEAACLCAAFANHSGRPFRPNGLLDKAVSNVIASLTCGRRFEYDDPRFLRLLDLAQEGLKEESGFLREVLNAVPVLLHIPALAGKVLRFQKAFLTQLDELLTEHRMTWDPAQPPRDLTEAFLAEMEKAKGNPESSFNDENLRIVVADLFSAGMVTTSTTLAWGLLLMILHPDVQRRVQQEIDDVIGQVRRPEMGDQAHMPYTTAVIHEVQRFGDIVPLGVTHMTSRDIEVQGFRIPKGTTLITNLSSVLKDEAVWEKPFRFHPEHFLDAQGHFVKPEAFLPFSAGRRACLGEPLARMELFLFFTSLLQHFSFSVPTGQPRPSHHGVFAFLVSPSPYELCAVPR
# Cytochrome P450 2C19 = Cytochrome P450 2C19 (Homo sapiens, UniProt P33261); experiment: Inhibition of CYP2C19 (unknown origin); assay type: ADME
# Cytochrome P450 2C19, sequence (P33261 whole entry): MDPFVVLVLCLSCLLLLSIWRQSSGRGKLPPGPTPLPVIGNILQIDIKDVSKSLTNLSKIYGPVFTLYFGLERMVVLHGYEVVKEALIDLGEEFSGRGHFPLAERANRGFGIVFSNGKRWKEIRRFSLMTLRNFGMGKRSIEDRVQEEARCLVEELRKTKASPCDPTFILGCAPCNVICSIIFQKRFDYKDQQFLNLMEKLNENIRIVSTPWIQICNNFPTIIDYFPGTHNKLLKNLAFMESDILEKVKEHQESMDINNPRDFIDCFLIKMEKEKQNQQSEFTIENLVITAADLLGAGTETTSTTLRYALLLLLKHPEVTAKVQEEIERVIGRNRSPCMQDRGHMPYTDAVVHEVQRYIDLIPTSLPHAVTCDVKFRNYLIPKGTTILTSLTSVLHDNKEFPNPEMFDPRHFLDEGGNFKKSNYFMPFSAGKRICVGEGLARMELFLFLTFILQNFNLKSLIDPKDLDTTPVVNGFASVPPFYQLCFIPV
# [26] = Oral bioavailability in monkey liver; assay type: ADME, organism-based, Macaca mulatta; conditions: rhesus monkey
# [27] = Ratio of AUC (0 to 24 hrs) in liver to plasma in Sprague-Dawley rat at 30 mg/kg, po by HPLC-MS/MS analysis; assay type: ADME, organism-based; design: dose 30 mg/kg, route oral; conditions: Sprague-Dawley, liver and plasma, read-out: Ratio AUC
# Cytochrome P450 3A4 [28] = biological target: T2, Cytochrome P450 3A4 (Homo sapiens, UniProt P08684); experiment: Time-dependent induction of CYP3A4 (unknown origin); assay type: ADME
# T2 sequence (P08684 whole entry): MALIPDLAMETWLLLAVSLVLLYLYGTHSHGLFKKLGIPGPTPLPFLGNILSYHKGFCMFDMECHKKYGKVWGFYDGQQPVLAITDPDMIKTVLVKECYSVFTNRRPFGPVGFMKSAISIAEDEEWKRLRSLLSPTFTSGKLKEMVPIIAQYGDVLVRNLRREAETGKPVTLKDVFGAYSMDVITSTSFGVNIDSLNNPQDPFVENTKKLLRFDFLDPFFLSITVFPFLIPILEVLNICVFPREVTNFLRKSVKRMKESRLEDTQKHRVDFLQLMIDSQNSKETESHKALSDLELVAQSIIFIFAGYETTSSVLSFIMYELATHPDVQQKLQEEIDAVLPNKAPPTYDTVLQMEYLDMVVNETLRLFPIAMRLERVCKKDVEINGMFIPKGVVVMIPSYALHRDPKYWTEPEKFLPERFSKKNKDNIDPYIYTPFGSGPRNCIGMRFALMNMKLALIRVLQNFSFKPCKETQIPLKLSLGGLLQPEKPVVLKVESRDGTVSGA
# [29] = Efflux ratio of permeability from basolateral to apical side over apical to basolateral side in human Caco2 cells; assay type: ADME, cell-based; conditions: Caco-2
# Hepatitis C virus [30] = experiment: Antiviral activity against Hepatitis C virus harboring NS3/4A protease A156T mutant gene infected in human HuH7 cells assessed as inhibition of HCV subgenomic replicon replication after 72 hrs by ELISA; assay type: functional, organism-based, Hepacivirus hominis; conditions: Huh-7, 72 h
# [31] = Metabolic stability in human hepatocytes assessed as extraction ratio at 1 uM; assay type: ADME, cell-based, Hepatocyte; conditions: read-out: ERH
# Cytochrome P450 3A4 [32] = biological target: T2, Cytochrome P450 3A4; experiment: Inhibition of CYP3A4 (unknown origin); assay type: ADME
# [33] = Lipophilicity, log D of the compound; assay type: physicochemical; conditions: octanol/water
# [34] = Inhibition of Hepatitis C virus genotype 4 NS3/4A protease using Ac-DE-Dap(QXL520)-EE-Abu-psi-[COO]-AS-Cys(5-FAMsp)-NH2 as substrate by FRET analysis
# Hepatitis C virus [35] = experiment: Antiviral activity against Hepatitis C virus genotype 2 infected in human HuH7 cells assessed as decrease in replicon RNA level after 2 days by TaqMan Gold RT-PCR analysis; assay type: functional, organism-based, Hepacivirus hominis; conditions: genotype 2, Huh-7, 48 h
# [36] = Cytotoxicity against human MT4 cells; assay type: cell-based
# [37] = Metabolic stability in dog hepatocytes assessed as extraction ratio at 1 uM; assay type: ADME, cell-based, Canis lupus familiaris, Hepatocyte; conditions: read-out: ERH
# Hepatitis C virus [38] = experiment: Antiviral activity against Hepatitis C virus harboring wild type NS3/4A protease infected in human HuH7 cells assessed as inhibition of HCV subgenomic replicon replication after 72 hrs by ELISA; assay type: functional, organism-based, Hepacivirus hominis; conditions: Huh-7, 72 h
# Hepatitis C virus [39] = experiment: Antiviral activity against Hepatitis C virus […] isolate Con1 harboring NS3/4A protease A156T mutant gene infected in human HuH7 cells assessed as inhibition of HCV replicon replication by luciferase assay; assay type: functional, organism-based, Hepacivirus hominis; conditions: isolate Con1, Huh-7
# [40] = Dissociation constant, pKa of the compound; assay type: physicochemical
# [41] = Aqueous solubility of the compound at pH 1.2 by modified shake-flask method; assay type: physicochemical
smiles,measurement,setting,value
CC(C)(C)OC(=O)N[C@H]1CCCCC/C=C\[C@@H]2C[C@@]2(C(=O)O)NC(=O)[C@@H]2C[C@@H](OC(=O)N3CCc4ccccc4C3)CN2C1=O,IC50,[1],177 nM
same,EC50,Hepatitis C virus [2],2350 nM
same,Ratio,[3],10
CC(C)(C)OC(=O)N[C@H]1CCCCC/C=C\[C@@H]2C[C@@]2(C(=O)NS(=O)(=O)C2CC2)NC(=O)[C@@H]2C[C@@H](OC(=O)N3Cc4cccc(F)c4C3)CN2C1=O [DANOPREVIR],hepatic extraction ratio,[4],0.04
same,solubility thermodynamic,[5],548 µg/mL
same,solubility thermodynamic,[6],> 1000 µg/mL
same,Ratio EC50,Hepatitis C virus [7],2
same,IC50,[8],0.2 nM
same,IC50,[9],0.2 nM
same,EC50,Hepatitis C virus [10],20 nM
same,INH,Cytochrome P450 1A2,> 25 µM
same,AUC(0-t) at 24 h,[11],9500 ng·h/mL
same,INH,Cytochrome P450 2C9,> 25 µM
same,hepatic extraction ratio at 1 µM,[12],0.54
same,Kp,[13],30
same,Ki,[14],1 nM
same,IC50,[15],1.6 nM
same,IC50,[16],3.5 nM
same,hepatic extraction ratio at 1 µM,[17],0.06
same,IC50,[18],0.2 nM
same,Papp A→B,[19],< 2 ×10⁻⁶ cm/s
same,Ki,NS3 protease,44.8 nM
same,Vdss,Rattus norvegicus,155 mL/kg
same,AUC(0-t) at 24 h,[20],90800 ng·h/mL
same,IC50,[21],0.2 nM
same,IC50,Hepatitis C virus [22],0.24 nM
same,IC50,[1],1 nM
same,inhibition (INH),[23],Not Active
same,EC50,Hepatitis C virus [24],1.6 nM
same,bioavailability,[25],15%
same,INH,Cytochrome P450 2D6,> 25 µM
same,INH,Cytochrome P450 2C19,> 25 µM
same,bioavailability,[26],78%
same,Kp,[27],10
same,Activity,Cytochrome P450 3A4 [28],Not Active
same,efflux ratio,[29],> 2
same,EC50,Hepatitis C virus [30],0.5 nM
same,EC50,Hepatitis C virus [2],2.4 nM
same,hepatic extraction ratio at 1 µM,[31],0.58
same,INH,Cytochrome P450 3A4 [32],12 µM
same,logD,[33],2.1
same,IC50,[34],0.2 nM
same,EC50,Hepatitis C virus [35],20 nM
same,CC50,[36],54 µM
same,hepatic extraction ratio at 1 µM,[37],0.23
same,EC50,Hepatitis C virus [38],< 0.25 nM
same,IC50,Hepatitis C virus [39],5.7 nM
same,pKa,[40],5.27
same,solubility thermodynamic,[41],0.5 µg/mL
